According to publication PMC12631437, “Evaluation of the Activity of 4‑Quinolones against Multi-Life Stages of Plasmodium spp” (ACS Omega, 2025):
Several values for one entry are separate records, joined by “and”; a condition that tells them apart may be missing. Equal entries are not always repeated. Where two headings read alike, the source gives them in different places.

Assays:
P. falciparum HB3 strain = test: SYBR Green growth assay, asexual blood stages, HB3 strain; assay type: cell-based, Plasmodium falciparum; conditions: for IC50: Plasmodium falciparum
Protocol: Parasite strains SB1-A6, 7G8, V1/S, and HB3 were acquired from BEI-MR4, while the ATQ R1 strain, carrying a V259L gene mutation, was generated in-house. […] Parasitemia was monitored using Giemsa-stained blood smears.
(§1) Bioassays were conducted with synchronized ring-stage parasites using sorbitol synchronization. Antimalarial compounds were evaluated in 96-well plates, and parasite growth was assessed using a SYBR Green-based fluorescence assay The assays were conducted when the parasite quantity reached at least 70% of the ring stage. Compounds were initially added at specific concentrations in the first wells, followed by serial dilution (1:2) ranging from 20 μM to 0.009 μM. Subsequently, a solution containing parasites in RPMI medium at a hematocrit of 2% was added to each well, and the parasites were then incubated for 72 h.
The IC50 values were determined using concentration–response curves generated in GraphPad 8 software. Additionally, the resistance index was calculated by comparing IC50 values obtained for the sensitive 3D7 strain with those of the resistant strains.

[1] = test system: P. falciparum V1/S strain; test: microbe, parasite or virus in culture; assay type: cell-based, Plasmodium falciparum; conditions: for IC50: Plasmodium falciparum
Protocol: (§2) Healthy blood samples for parasite culture were obtained from voluntary donors (approved under protocol #28176720.9.0000.0011), processed to remove white blood cells, and stored at 2 °C–8 °C for up to 15 days. Parasite strains SB1-A6, 7G8, V1/S, and HB3 were acquired from BEI-MR4, while the ATQ R1 strain, carrying a V259L gene mutation, was generated in-house. Infected erythrocytes were cultured in RPMI 1640 medium supplemented with Hepes, sodium bicarbonate, glucose, Albumax, and gentamicin, […], and incubated in a 5% CO2, 5% O2, and 90% N2 gas mixture at 37 °C with daily medium changes. Parasitemia was monitored using Giemsa-stained blood smears.
as §1
(§3) To assess parasite growth, the culture medium was replaced with a lysis solution (Trisbase: 49.31%, EDTA: 30.00%, Saponin: 0.16%, Triton: 0.02%) containing the fluorescent dye SYBR Green (Sigma). After a 30 min incubation, fluorescence readings were taken to determine the 50% inhibitory concentration (IC50) of parasite growth. The IC50 values were determined using concentration–response curves generated in GraphPad 8 software. Additionally, the resistance index was calculated by comparing IC50 values obtained for the sensitive 3D7 strain with those of the resistant strains.

P. falciparum 7G8 strain = test: SYBR Green growth assay, asexual blood stages, 7G8 strain; assay type: cell-based, Plasmodium falciparum; conditions: for IC50: Plasmodium falciparum
Protocol: as §2, §1, §3

[2] = test system: P. falciparum SB1-A6 strain; test: SYBR Green growth assay, asexual blood stages, SB1-A6 strain; assay type: cell-based, Plasmodium falciparum
Protocol: as §2, §1, §3

[3] = test system: P. falciparum ATQ_R1 strain; test: SYBR Green growth assay, asexual blood stages, ATQ_R1 strain; assay type: cell-based, Plasmodium falciparum; conditions: for IC50: Plasmodium falciparum
Protocol: as §2, §1, §3

[4] = test system: P. falciparum DHODH strain; test: SYBR Green growth assay, asexual blood stages, DHODH resistant mutant; assay type: cell-based, Plasmodium falciparum
Protocol: as §2, §1, §3

[5] = test system: P. berghei exflagellation centers; test: Ex vivo exflagellation assay, blood of P. berghei infected mice; assay type: cell-based, Plasmodium berghei; conditions: 15 min incubation
Protocol: For the ex vivo assays, a female CD1 mouse between 4 and 5 weeks of age (n = 3) was infected with P. berghei. After 4 days, when the presence of parasites (sexual phases) in the blood was observed by Giemsa-stained blood smear microscopy, the total blood from the mouse was collected into a preheated tube at 37 °C containing RPMI medium supplemented with 20% Fetal Bovine Serum (FBS) and 200 units/mL of heparin as an anticoagulant. The tube was maintained at 37 °C and centrifuged at 1500 rpm for 5 min. The supernatant was discarded, and the blood was resuspended in 20 mL of RPMI medium supplemented with 20% FBS.
One milliliter of resuspended blood was added to each well of a 6-well plate containing 5 μM methylene blue (positive control), test compound 1 at 10 μM and 1 μM, and DMSO (negative control). After 15 min, the wells were homogenized, and 10 μL of the content was collected into an Eppendorf tube and incubated at room temperature for another 15 min. The sample was then transferred to a Neubauer chamber, and exflagellation centers were counted using an optical microscope at 40× magnification.

[6] = Mitochondrial toxicity, HepG2 cells cultured in glucose or galactose (resazurin); assay type: cell-based; conditions: human, 3.125–50 μM, read-out: cell viability
Protocol: To evaluate mitochondrial toxicity, HepG2 cells were cultured in RPMI-1640 medium under two metabolic conditions: one group was maintained in standard RPMI supplemented with 2 g/L glucose (glucose condition), while the second group was gradually adapted to rely on galactose as the primary energy source. For this adaptation, glucose levels were reduced by 20% every 2 days until reaching a final concentration of 20% of the original glucose amount. On the day of the assay, the […] cells were cultured in glucose-free RPMI medium supplemented with 10 mM galactose. When cells reached 80% confluence, they were detached using 2 mL of trypsin-EDTA solution (0.2 g of EDTA) for 5 min at 37 °C, then resuspended in fresh medium and centrifuged at 100 × g for 1 min. After centrifugation, cells were counted using a Neubauer chamber and seeded at […] per well in 96-well plates containing 180 μL of culture medium. Plates were incubated at 37 °C with 5% CO2 for 12–16 h to allow for cell adhesion. […] After treatment, 40 μL of a 0.15 mg/mL resazurin solution (RSZ) was added to each well and incubated for an additional 5 h. RSZ is a nontoxic, cell-permeable blue dye that is reduced by metabolically active cells to highly fluorescent pink resorufin. Fluorescence was measured using a fluorimeter with excitation/emission at 560/590 nm. Cell viability was calculated relative to untreated controls (set at 100%), determined using GraphPad Prism 8.

[7] = test system: Plasmodium over mammalian cells; conditions: specificity for Plasmodium over mammalian cells; previous studies; cited from earlier work

Compound: CCCCCCCCCCCc1cc(=O)c2ccccc2[nH]1 [compound 1, 2-Undecilquinolin-4(1H)-one]
- IC50 (P. falciparum HB3 strain; HB3, strain assigned by order of panels, read-out: IC50 (Figure S1)): 260 nM
- IC50 (P. falciparum HB3 strain; HB3 strain, 72 h, read-out: IC50): 430 ± 50 nM
- RI (resistance index) (P. falciparum HB3 strain; ratio of IC50 HB3 to 3D7): 2.1
- IC50 ([1]; 72 h): 800 ± 100 nM
- IC50 ([1]; read-out: IC50 (Figure S1)): 700 nM
- RI (resistance index) ([1]; ratio of IC50 V1S to 3D7): 4.0
- IC50 (P. falciparum 7G8 strain; 7G8, strain assigned by order of panels, read-out: IC50 (Figure S1)): 200 nM
- IC50 (P. falciparum 7G8 strain; 7G8 strain, 72 h, read-out: IC50): 270 ± 10 nM
- RI (resistance index) (P. falciparum 7G8 strain; ratio of IC50 7G8 to 3D7): 1.3
- IC50 ([2]; Plasmodium falciparum, 72 h): 7000 ± 1000 nM
- RI (resistance index) ([2]; ratio of IC50 SB1-A6 to 3D7): 35
- IC50 ([3]; 72 h): 600 ± 100 nM
- IC50 ([3]; read-out: IC50 (Figure S1)): 800 nM
- RI (resistance index) ([3]; ratio of IC50 ATQ_R1 to 3D7): 3.0
- IC50 ([4]; Plasmodium falciparum, 72 h): 60 ± 10 nM
- RI (resistance index) ([4]; ratio of IC50 DHODH to 3D7): 0.3
- reduction of exflagellation centers (ex vivo) ([5]; 1 μM): 23,8% and 24%
- reduction of exflagellation centers (ex vivo) ([5]; 10 μM): 63,9% and 64%
- viability at 24 h ([6]; HepG2 cells adapted to galactose, HepG2 in galactose): < 0.5%
- viability at 24 h ([6]; HepG2 cells cultured in glucose, HepG2 in glucose): > 50%
- selectivity index (SI) [7]: > 120
